Data published in patent publication US20210177722A1, “Phytic Acid Ester Derivative” (NATIONAL UNIVERSITY CORPORATION KUMAMOTO UNIVERSITY, priority 2018, published 2021).

Legend:
[1] = system: M8166 cell (human T-lymphoblastoid cell); test: MTT assay, M8166 cell; format: cell-based
Method: (§1) In this example, the cytotoxic effect of Pro-IP6 on four types of blood cancer cell lines and a cell derived from a healthy person was examined by MTT assay. […] It is possible to check viability of cultured cells by MTT assay. Cancer cell lines (1.74×10^4 cells/well, culture fluid: 200 μL) • MT-2 cell (HTLV transformed human T cell leukemia cell) • […] cell (human T-lymphoblastoid cell) • Jurkat cell (human T-lymphocyte cell) • K562 cell (chronic myelogenous leukemia cell) Each of the above-described types of cells was seeded in a 96-well plate, and was cultured for 8 hours for each of the various cancer cell lines and for 16 hours for PMBC. Thereafter, DMSO (1%, Fujifilm Wako Pure Chemical Corporation), an aqueous solution (1%) of IP6 (final concentration: 1 μM or 10 μM, Sigma Aldrich), or a DMSO solution (1%) of Pro-IP6 (final concentration: 1 μM or 10 μM) was added thereto, followed by culturing for 8 hours or 24 hours. An MTT reagent (Dojindo Laboratories, 1.1 mg/mL) was added in an amount of 50 μL per well, and the resultant was cultured for another 4 hours. The thus precipitated crystal was collected, a supernatant was removed, and 100 μL of DMSO was added thereto to completely dissolve. The resultant solution was measured for an absorbance (550 nm).

[2] = system: K562 cell (chronic myelogenous leukemia cell); test: MTT assay, K562 cell; format: cell-based; conditions: 1 μM or 10 μM, 8 hours or 24 hours
Method: as §1

[3] = system: Jurkat cell; test: Cell viability test (flowcytometry, Annexin V-FITC / 7-AAD); format: cell-based, human; conditions: 10 μM, 24 hours
Method: In this example, a cell viability test (flowcytometry) was performed using a Jurkat cell, that is, a human T cell-derived leukemia cell. Jurkat cells (1×10^5 cells/well, culture fluid: 500 μL) were seeded in a 24-well plate (Iwaki) to be cultured overnight. Thereafter, DMSO (1%, Fujifilm Wako Pure Chemical Corporation), an aqueous solution (1%) of IP6 (final concentration: 10 μM, Sigma Aldrich), or a DMSO solution (1%) of Pro-IP6 (myo-inositol hexaphosphate dodecakis(butyryloxymethyl) ester (4) synthesized in Example 1) (final concentration: 10 μM) was added thereto, and the resultant was cultured for 24 hours. A supernatant was removed, the resultant was washed with 1× PBS (−) once, 100 μL of 5× binding solution (PromoCell) was added thereto, and Annexin V-FITC (PromoCell) and 7-AAD (Becton, Dickinson and Company) were added thereto to perform a reaction for 15 minutes. Thereafter, measurement was performed using FACS Calibur (Becton, Dickinson and Company), and analysis was performed using FlowJo (Becton, Dickinson and Company).

CCCC(=O)OCOP(=O)(OCOC(=O)CCC)O[C@H]1[C@H](OP(=O)(OCOC(=O)CCC)OCOC(=O)CCC)[C@@H](OP(=O)(OCOC(=O)CCC)OCOC(=O)CCC)[C@H](OP(=O)(OCOC(=O)CCC)OCOC(=O)CCC)[C@@H](OP(=O)(OCOC(=O)CCC)OCOC(=O)CCC)[C@H]1OP(=O)(OCOC(=O)CCC)OCOC(=O)CCC [Pro-IP6, myo-inositol hexaphosphate dodecakis(butyryloxymethyl) ester]
cytotoxic effect at 10 μM [1]: most of the cells were killed | lowering of relative cell viability ([1]; M8166 cell, 1 μM or 10 μM, 8 hours or 24 hours): ≥ 25% | lowering of relative cell viability [2]: ≥ 25% | induction of apoptosis (Annexin V-FITC / 7-AAD flow cytometry) [3]: induction of apoptosis in a Jurkat cell, that is, human T cell-derived leukemia cell, was observed
